In patent publication US20050196362A1, “Personal care compositions containing highly branched primary alcohol component” (priority 2004, published 2005):

Columns and labels:
[1] = Pigment dispersion: amount of Z-cote HP1 dispersed before viscosity reaches 10,000 cps; assay type: physicochemical; settings: 100 g solubilizer/dispersant; Brookfield RVT 20 rpm, 25° C.
Experimental: (§1) The branched primary alcohol component and the Z-cote were mixed for 15 minutes at 5000 rpm using a Silverson mixer to form a dispersion of zinc oxide in the alcohol component. The dispersion was allowed to equilibrate to room temperature (25° C.), and then viscosity measurements were taken using a Brookfield (RTM) RVT Viscometer set at 20 rpm. Additional Z-cote was then added to the branched alcohol component in incremental amounts of 15 g. Viscosity measurements were taken after mixing each incremental amount of Z-cote with the branched alcohol component for 15 minutes and after allowing the resulting dispersion to return to room temperature. When the viscosity of the dispersion reached or exceeded 10,000 cps no further additions of Z-cote were made and no further viscosity measurements were taken. A target viscosity of 10,000 cps was selected since a dispersion having a viscosity of greater than 10,000 cps is not preferred for use in a sunscreen composition.
(§2) Pigment Dispersion: Pigment was added to a 100 gm of emollient sample. The mixture was blended using a Silverson mixer for 15 minutes at 5000 rpm. The viscosity was measured after the sample had equilibrated to room temperature.

[2] = Pigment dispersion: amount of Eusolex T2000 dispersed before viscosity reaches 10,000 cps; assay type: physicochemical; settings: 100 g solubilizer/dispersant; Brookfield RVT 20 rpm, 25° C.
Experimental: as §1, §2

[3] = Pigment dispersion: amount of Z-cote dispersed before viscosity reaches 10,000 cps; assay type: physicochemical; settings: 100 g solubilizer/dispersant; Brookfield RVT 20 rpm, 25° C.
Experimental: as §1
From FIG. 1, the amount of Z-cote needed to provide a dispersion having a viscosity of 10,000 cps may be determined for each solubilizer/dispersant.
as §2

[4] = In vitro SPF of sunscreen formulation with dispersing agent; settings: sunscreen formulation with 15.00 % by weight dispersing agent; artificial medium
Experimental: (§3) This example compares the alcohol of the present invention to several other dispersing agents in terms of in vitro SPF and viscosity. In vitro SPF means that the test was not carried out on human skin, but an artificial medium. The sunscreen formulation is manufactured as follows. The ingredients of Phase A are combined together at 75° C. The ingredients of Phase B are combined together at 75° C. Phase B is then added to Phase A. Phase C is added to the resulting mixture, followed by cooling of the mixture to 40° C. and adding Phase D. The formulation is ready for packaging at a temperature of 35° C.

[5] = Viscosity of sunscreen formulation with dispersing agent; assay type: physicochemical; settings: sunscreen formulation with 15.00 % by weight dispersing agent
Experimental: as §3

[6] = Freeze/Thaw testing of prototype formulation (3 cycles); assay type: physicochemical; settings: three 24 hr. freeze/thaw cycles
Experimental: Freeze/Thaw testing: Phase stability was observed using approximately 30 ml of a prototype formulation. After preparation, the samples were cooled until solid for 24 hrs. They were allowed to equilibrate to room temperature when the appearance of the formulation was recorded. This process was repeated for three 24 hr. freeze/thaw cycles.

[7] = Solubility profile of branched emollient alcohols in cosmetic solvents; assay type: physicochemical; design: key: +: Soluble; +/−: Dispersible
[8] = Viscosity of lotion/moisturizer emulsions containing the fatty alcohol; assay type: physicochemical
Experimental: Solubility: Two emulsion types (W/O-water-in-oil night cream/lotion and O/W-oil-in-water moisturizer lotion) were prepared. Both types of products incorporated commonly used cosmetic ingredients. The C1617 MM MO and the Guerbet C16 alcohols were used at 15% in the W/O lotion and 10% in the moisturizer.
MO C1617 mono-methyl branched primary alcohol was formulated in a water-in-oil night cream and an oil-in-water moisturizer formula as indicated in Tables 8 and 10 respectively. The viscosity and formula properties of the MO methyl-branched primary alcohol were evaluated relative to a branched C18 emollient alcohol and the data is indicated in Tables 9 and 11 respectively.

[9] = Oven stability test of W/O and O/W lotions; assay type: physicochemical; settings: 90 days at 23° C. and 45° C.
Experimental: Stability Tests: All W/O and O/W lotions were placed on stability testing for phase and odor stability monitoring for 90 days at 23° C. (room temperature) and 45° C.

[10] = Table 8 formulation, 15.0 % wt fatty alcohol
[11] = Table 10 oil-in-water moisturizer, 10.0 % wt fatty alcohol

## CCCCCCCCOC(=O)CCCCCCCCC(=O)OCCCCCCCC [Dioctyl sebacate (DOS), Dioctyl sebacate]
[1]
  Amount in grams of Z-cote HP1 needed to give a viscosity of 10,000 cps: 50 grams
[2]
  Amount in grams of Eusolex T2000 needed to give a viscosity of 10,000 cps: 34 grams
[3]
  Amount in grams of Z-cote needed to give a viscosity of 10,000 cps: 20 grams

## CCCCCCCCCCCCCCCC(=O)OCC(CC)CCCC (centres unmarked) [Ethylhexylpalmitate]
[4]
  In-vitro SPF: 22.73
[5]
  Viscosity, cps: 13000 cps

## CCCCCCCCC(CO)CCCCCC (centres unmarked) [Guerbet C16 Branched]
[6]; [10]
  Freeze-Thaw (3 cycles): Pass
[6]; [11]
  Freeze-Thaw (3 cycles): Pass
[4]
  In-vitro SPF: 22.6
[7]; C12-15 Alkyl Benzoate (90%), @ 25° C.
  Solubility: +
[7]; C12-15 Alkyl Benzoate (90%), @ 50° C.
  Solubility: +
[7]; Dimethicone 245 (90%), @ 25° C.
  Solubility: +
[7]; Dimethicone 245 (90%), @ 50° C.
  Solubility: +
[7]; Isododecane (90%), @ 25° C.
  Solubility: +
[7]; Isododecane (90%), @ 50° C.
  Solubility: +
[7]; Isohexadecane (90%), @ 25° C.
  Solubility: +
[7]; Isohexadecane (90%), @ 50° C.
  Solubility: +
[7]; Isopropylmyristyl Alcohol (90%), @ 25° C.
  Solubility: +
[7]; Isopropylmyristyl Alcohol (90%), @ 50° C.
  Solubility: +
[7]; Mineral Oil (90%), @ 25° C.
  Solubility: +
[7]; Mineral Oil (90%), @ 50° C.
  Solubility: +
[7]; Octocrylene (30%), @ 25° C.
  Solubility: +
[7]; Octocrylene (30%), @ 50° C.
  Solubility: +
[7]; Octyl Dimethyl Paba (30%), @ 25° C.
  Solubility: +
[7]; Octyl Dimethyl Paba (30%), @ 50° C.
  Solubility: +
[7]; Octyldodecanol (90%), @ 25° C.
  Solubility: +
[7]; Octyldodecanol (90%), @ 50° C.
  Solubility: +
[7]; Propylene Glycol (90%), @ 25° C.
  Solubility: +/−
[7]; Propylene Glycol (90%), @ 50° C.
  Solubility: +
[7]; Sesame Oil (90%), @ 25° C.
  Solubility: +
[7]; Sesame Oil (90%), @ 50° C.
  Solubility: +
[8]; [10]
  Viscosity, cps: 7,600 cps
[8]; [11]
  Viscosity, cps: 11,300 cps
[5]
  Viscosity, cps: 2700 cps
[9]; [10]
  Oven Stability: Pass
[9]; [11]
  Oven Stability: Pass

## octyldodecyl neopentanoate [Elefac I-205]
[1]
  Amount in grams of Z-cote HP1 needed to give a viscosity of 10,000 cps: 65 grams
[2]
  Amount in grams of Eusolex T2000 needed to give a viscosity of 10,000 cps: 35 grams
[3]
  Amount in grams of Z-cote needed to give a viscosity of 10,000 cps: 24 grams
